From patent publication US10792255B2, “Reconstituted apolipoprotein B lipoparticle, a preparation method and uses thereof” (National Chiao Tung University, priority 2013, dated 2020)

Key:
A549 cells = experiment: Functional test of M4N@rABL (cell viability, trypan blue); assay type: cell-based; conditions: 100 μM M4N (20 μg/ml rABL), 24 hrs treatment then 48 hrs culture
Description: After removing the medium, the cells were washed twice with PBS and cultured with serum-containing medium for 48 hrs. The cell viability was observed by a trypan blue staining.

mice = conditions: long-term feeding; cited from earlier work

COc1ccc(C[C@@H](C)[C@@H](C)Cc2ccc(OC)c(OC)c2)cc1OC [M4N, tetra-O-methyl nordihydroguaiaretic acid]
cell viability (A549 cells): 40% | weight changes or mortality (mice): not found any obvious weight changes or mortality
